Values of other authors, collected in patent US20240100064A1, “METHODS OF TREATING NEURODEVELOPMENTAL DISORDERS” (Woolsey Pharmaceuticals, Inc., priority 2020, published 2024).
Where a name gives a salt, the structure may show the parent alone.

Assays:
[1] = in vivo, 1-hydroxy metabolite (Shibuya 2001)
[2] = system: oligophrenin-1-deficient mice
[3] = oligophrenin-1-deficient mice (Allegra et al. 2017)
[4] = oligophrenin-1 deficient mice (Meziane et al. 2016)

half-life [1]	Structure (SMILES)	rescuing axon formation [2, 3]	spine density [2, 3]	hippocampal hyperexcitability ([2]; oligophrenin-1 deficient mice (Busti 2020))	behavioral changes [2, 4]	brain ventricular enlargement [2, 4]
about 8 hours	O=S(=O)(c1cccc2c(O)nccc12)N1CCCNCC1 [M3]					
	O=S(=O)(c1cccc2cnccc12)N1CCCNCC1 [Fasudil, Hexahydro-1-(5-isoquinolinesulfonyl)-1H-1,4-diazepine monohydrochloride hemihydrate]	not effective	restored	rescue	reverse	reverse
